In patent US11428689B2, “Methods and uses for remotely triggered protease activity measurements” (Massachusetts Institute of Technology, priority 2016, dated 2022):
Entries after “also recorded” stand apart in the source; their conditions may differ. Where no end group is shown, it is not given here. [ ]: non-standard residue; d: D form. FAM = fluorescein

Tests used:
[1] = biological target: T1, MMP7 (Homo sapiens, UniProt P09237); experiment: In vitro recombinant protease assay (fluorescence dequenching of NP-bound substrate); format: biochemical; conditions: 100 μM final concentration
T1 construct: purchased Enzo Life Sciences
T1 sequence (P09237 95-267): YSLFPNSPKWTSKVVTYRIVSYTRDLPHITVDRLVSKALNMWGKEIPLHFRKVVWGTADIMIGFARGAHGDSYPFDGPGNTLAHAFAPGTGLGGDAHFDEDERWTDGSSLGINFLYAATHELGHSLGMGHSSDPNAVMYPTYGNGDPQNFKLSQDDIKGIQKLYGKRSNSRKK
Protocol: (§1) C1-NP complexes sensitive to MMP cleavage were mixed with 1% (wt/vol) BSA (Sigma) and incubated with recombinant proteases (MMPs and ADAMs: Enzo Life Sciences; Clotting proteases: Haematologic Technologies) in a final volume of 100 μL in enzyme-specific buffers (MMP buffer: 50 mM Tris, 150 mM NaCl, 5 mM CaCl2, 1 μM ZnCl2, pH 7.5; Clotting proteases: PBS) in a 384-well plate for time-lapse fluorimetry to measure dequenching from homoquenched peptides at 37° C. (SpectroMax Gemini EM Microplate Reader). For the metalloproteinase, enzymes were diluted 1:10 in enzyme specific buffer, and for clotting proteases, enzymes were diluted 1:100. Cleavage heatmap was generated using GENE-E (Broad Institute). Michaelis-Menten constants were determined by assessing initial cleavage velocities at different substrate concentrations. The MMP inhibitor Marimatstat (Tocris) was added to the mixture at 100 μM final concentration. To identify the cleavage position by MMP9, C1-NPs were incubated with MMP9 overnight, and the N-terminal cleavage fragment was isolated and analyzed by MALDI. The sequence corresponding to the dominant peak was identified, and the final amino acid was in that sequence represents the P1 position (toward the N-terminal end from scissile bond). For protease resistance assays, various DMNPE: peptide ratios were reacted overnight and purified prior to being added to proteases.

[2] = test system: LS174T; experiment: Secreted protease activity assay with quenched substrates; format: cell-based, human; conditions: for cleavage by cell-secreted proteases: fluorescently quenched versions, LS174T conditioned supernatant
Protocol: Next, whether the MAPS(S1-S3) could distinguish MMP profiles of different tumor types was probed. […] Cleavage of the substrates was tested by cell-secreted proteases by employing fluorescently quenched versions and exposing them to conditioned supernatant.
LS174T and HCT-8 cells were cultured in Eagle's Minimal Essential Medium (ATCC) supplemented with 10% FBS (Gibco) and 1% penicillin-streptomycin (CellGro). Cells were passaged when confluence reached 80%. To isolate secreted proteases, after cells were plated, cells were washed and replaced in serum-free media. Media was collected and MMP2 was measured in supernatant using a Quantikine MMP-2 kit following manufacturer protocols (R&D Systems). Secretion was normalized to number of cells and days in culture. A similar approach was used when collecting supernatants for measuring proteolysis of S1-3.

[3] = biological target: T2, MMP9 (Homo sapiens, UniProt P14780); experiment: In vitro recombinant protease assay with streptavidin depletion; format: biochemical; parameters: purchased Enzo Life Sciences; conditions: ~100 nM MMP, one hour
Protocol: (§2) MMPs (˜100 nM working concentration, Enzo Life Sciences) were added to substrates in 384-well plates in activity buffer (50 mM Tris, 150 mM NaCl, 5 mM CaCl2, 1 μM ZnCl2) containing 1% BSA. After one hour, uncleaved peptide was extracted using Dynabeads Strepatividin C1 (Life Technologies) as per manufacturer protocols. An excess of Dynabeads was used.

[4] = test system: LS174T flank tumor; conditions: LS174T tumor-bearing mice
Excerpt: (§3) The in vivo activation protocol was applied to specifically activate the three sets of MAPS to profile tumor protease activity between LS174T and HCT8 tumors.

[5] = healthy mice
Excerpt: as §3

[6] = biological target: T3, MMP2 (Homo sapiens, UniProt P08253); experiment: In vitro recombinant protease assay with streptavidin depletion; format: biochemical; conditions: ~100 nM MMP, one hour
T3 construct: purchased Enzo Life Sciences
T3 sequence (P08253 110-660): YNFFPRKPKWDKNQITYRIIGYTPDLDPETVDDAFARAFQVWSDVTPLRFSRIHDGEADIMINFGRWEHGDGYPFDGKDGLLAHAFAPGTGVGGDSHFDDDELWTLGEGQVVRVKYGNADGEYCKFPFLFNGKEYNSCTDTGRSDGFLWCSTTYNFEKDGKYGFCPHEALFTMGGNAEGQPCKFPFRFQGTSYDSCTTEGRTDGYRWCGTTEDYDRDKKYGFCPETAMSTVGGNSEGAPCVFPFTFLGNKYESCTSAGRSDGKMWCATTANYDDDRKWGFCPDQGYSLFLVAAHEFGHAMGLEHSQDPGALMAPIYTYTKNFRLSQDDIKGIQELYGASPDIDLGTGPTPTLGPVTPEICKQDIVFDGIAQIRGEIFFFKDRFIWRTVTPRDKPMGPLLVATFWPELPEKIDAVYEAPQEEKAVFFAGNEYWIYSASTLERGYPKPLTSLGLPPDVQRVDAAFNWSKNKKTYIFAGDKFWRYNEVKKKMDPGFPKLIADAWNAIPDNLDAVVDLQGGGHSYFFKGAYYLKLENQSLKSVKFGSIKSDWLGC
Protocol: as §2

[7] = test system: LS174T cells; experiment: Secreted protease activity assay, conditioned media; format: cell-based, human; conditions: conditioned media from LS174T cells
Protocol: LS174T and CCD-18Co (ATCC CRL-1459) cells were cultured in Eagle's Minimal Essential Medium (ATCC) supplemented with 10% FBS (Gibco) and 1% penicillin-streptomycin (CellGro). Cells were passaged when confluence reached 80%. To isolate secreted proteases, after cells were plated, cells were washed and replaced in serum-free media. Conditioned media was collected 24 h later and exposed to C1-NPs to measure fluorescence dequenching.

[8] = test system: LS174T cells; experiment: 3D collagen cancer tissue model, peptide fluorescence in supernatant; format: cell-based, human
Protocol: Next, the activation of the nanosensors in a 3D ECM environment was probed. Forty LS174T cells were embedded in collagen I together with veiled or unmodified nanosensors (FIG. 4A). The constructs were monitored for protease activity by collecting the supernatant and measuring liberated peptide fragments under different conditions: L-amino acid peptide substrates were compared to D-amino acid counterparts to measure nonspecific background, and the role of DMPNE veiling was measured.
In order to correlate regions of light-activation with protease activity measurements, light-activated rhodamine dye was included to visualize regions exposed to light (FIG. 12A). To explore the ability to monitor protease activity with spatial and temporal control, only the left half of the gels was illuminated.
LS174T cells were encapsulated in 2.5 mg/mL collagen hydrogels (rat tail collagen type I, Corning). Imaging was done on Nikon Eclipse Ti Inverted Microscopes and Zeiss Stereoscope Discovery v20. When protease activity was measured, surrounding media was serum-free.

[9] = biological target: T2, MMP9; experiment: In vitro recombinant protease assay (fluorescence dequenching of NP-bound substrate); format: biochemical; parameters: purchased Enzo Life Sciences
Protocol: as §1
(§4) Light activation of peptides for biochemical studies was performed using a CL-1000 UV Cross-linker (UVP, 8 mW/cm^2). Power density was measured by an OAI 306 UV power meter at 365 nm. Typical exposure time for these studies was 10-30 min. For activation in cell and animal studies, Lumen Dynamics UV system with 365 nm fiber light guide was used (OmniCure 1000, 200 mW/cm^2). For in vivo activation at the tumor site, mice were anesthetized, and the light was guided through an optical cable and placed approximately 3 cm from the flank tumor. Each flank tumor was exposed for 30 s.

[10] = biological target: T2, MMP9; experiment: Agarose gel assay; format: biochemical; conditions: light exposure 1 min, 200 mW/cm^2
Protocol: Agarose (type I-A, Sigma) was dissolved in MMP9 specific buffer (1% w/v) and heated. As the gel mixture was cooling, gel solution was transferred into a 96-well plate and mixed with STREAMs and recombinant MMP9. After gelation, the gels were activated (as above), and fluorescence dequenching through cleavage was monitored using time-lapse fluorimetry.

[11] = biological target: T4, MMP13 (Homo sapiens, UniProt P45452); experiment: In vitro recombinant protease assay (fluorescence dequenching of NP-bound substrate); format: biochemical
T4 construct: purchased Enzo Life Sciences
Protocol: as §1, §4

[12] = biological target: T5, recombinant thrombin (Homo sapiens, UniProt P00734); experiment: In vitro recombinant protease assay (fluorescence release); format: biochemical; conditions: veiled vs unmodified
T5 construct: purchased Haematologic Technologies
Protocol: as §1

[13] = biological target: T6, MMP19 (Homo sapiens, UniProt Q99542); experiment: In vitro recombinant protease assay with streptavidin depletion; format: biochemical; conditions: ~100 nM MMP, one hour
T6 construct: purchased Enzo Life Sciences
T6 sequence (Q99542 98-508): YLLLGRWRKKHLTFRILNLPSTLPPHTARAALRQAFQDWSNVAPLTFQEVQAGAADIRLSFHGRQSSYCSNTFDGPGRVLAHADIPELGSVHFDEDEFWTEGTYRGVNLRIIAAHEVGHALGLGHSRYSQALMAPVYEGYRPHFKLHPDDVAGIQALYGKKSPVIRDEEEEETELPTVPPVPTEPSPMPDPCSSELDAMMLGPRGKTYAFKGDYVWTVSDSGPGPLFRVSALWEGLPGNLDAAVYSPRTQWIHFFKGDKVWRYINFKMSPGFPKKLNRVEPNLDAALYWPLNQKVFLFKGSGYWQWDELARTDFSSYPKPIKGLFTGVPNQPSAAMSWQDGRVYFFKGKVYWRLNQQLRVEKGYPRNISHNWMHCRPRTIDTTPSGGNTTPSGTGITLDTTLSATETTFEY
Protocol: as §2

[14] = biological target: T1, MMP7; experiment: as above; format: biochemical; conditions: ~100 nM MMP, one hour
Protocol: as §2

[15] = biological target: plasmin (Homo sapiens, UniProt P00747); experiment: Proteolysis of alternate DMNPE-veiled substrate; format: biochemical
Excerpt: To validate that the approach is generalizable to alternative substrates, the STREAMs principle was applied to a second peptide sequence. Additionally, the reporter for this additional sequence was designed to be orthogonal to the original sequence (containing a near IR dye as opposed to fluorescein). […] The ability to produce STREAMs with orthogonal reporters for multiple substrate targets, in some embodiments, enables multiplexing. Additionally, coupling this approach with alternate modes for multiplexing analyte detection, in some embodiments, enables simultaneous monitoring of several substrates.
Fluorescein-conjugated peptides (MMP sensitive, C1: FAM-sk-PLGLEEA-GC; SEQ ID NO: 3) were synthesized. D-amino acid controls were also synthesized, where the substrate sequence was all D-stereoisomers. Peptides for in vivo studies that contain a ligand-encoded reporter for urinary clearance and subsequent ELISA detection were synthesized (V1: Biotin-PEG(5 kDa)-(KFAM)-PLGLEEA-GC; SEQ ID NO: 4). The PEG 5 kDa reporter is efficiently cleared by the renal system into the urine and can be quantified by ELISA for the conjugated ligands. The alternate substrate to show STREAMs extensibility was synthesized at a different location (sequence: eGvndneeGffsarKsRLVGEGC; SEQ ID NO: 5). VT750 (PerkinElmer) was conjugated to the free lysine prior to coupling to DMNPE. […]

[16] = increasing periods of light exposure, 8 mW/cm^2

T2 sequence (P14780 94-707, species assumed): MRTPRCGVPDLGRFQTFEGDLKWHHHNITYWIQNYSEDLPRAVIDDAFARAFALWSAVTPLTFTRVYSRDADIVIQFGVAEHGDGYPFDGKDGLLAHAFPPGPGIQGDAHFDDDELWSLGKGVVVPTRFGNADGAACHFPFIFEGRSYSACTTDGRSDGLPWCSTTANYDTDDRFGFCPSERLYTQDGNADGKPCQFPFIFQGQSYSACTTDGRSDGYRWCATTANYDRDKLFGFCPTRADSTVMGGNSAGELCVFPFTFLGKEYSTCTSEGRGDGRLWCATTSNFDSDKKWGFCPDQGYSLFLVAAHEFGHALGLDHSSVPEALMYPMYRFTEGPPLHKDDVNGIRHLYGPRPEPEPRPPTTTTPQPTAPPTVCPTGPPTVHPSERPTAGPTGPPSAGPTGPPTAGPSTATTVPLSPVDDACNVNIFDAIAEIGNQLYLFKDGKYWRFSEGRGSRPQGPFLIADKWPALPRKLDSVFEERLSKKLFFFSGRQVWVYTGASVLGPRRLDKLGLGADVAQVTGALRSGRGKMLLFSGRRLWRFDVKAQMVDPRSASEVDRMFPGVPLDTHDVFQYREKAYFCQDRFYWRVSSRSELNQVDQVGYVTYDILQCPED
Chain of plasmin (P00747 581-810 limits assumed, species assumed): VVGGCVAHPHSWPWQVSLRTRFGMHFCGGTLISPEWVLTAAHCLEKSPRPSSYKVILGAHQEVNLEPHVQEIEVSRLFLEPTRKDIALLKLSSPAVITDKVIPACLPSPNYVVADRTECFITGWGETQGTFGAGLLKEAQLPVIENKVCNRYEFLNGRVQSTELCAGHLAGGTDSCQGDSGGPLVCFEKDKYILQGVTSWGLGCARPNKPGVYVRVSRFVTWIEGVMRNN
Chain of plasmin (P00747 97-580 partner limits assumed, species assumed): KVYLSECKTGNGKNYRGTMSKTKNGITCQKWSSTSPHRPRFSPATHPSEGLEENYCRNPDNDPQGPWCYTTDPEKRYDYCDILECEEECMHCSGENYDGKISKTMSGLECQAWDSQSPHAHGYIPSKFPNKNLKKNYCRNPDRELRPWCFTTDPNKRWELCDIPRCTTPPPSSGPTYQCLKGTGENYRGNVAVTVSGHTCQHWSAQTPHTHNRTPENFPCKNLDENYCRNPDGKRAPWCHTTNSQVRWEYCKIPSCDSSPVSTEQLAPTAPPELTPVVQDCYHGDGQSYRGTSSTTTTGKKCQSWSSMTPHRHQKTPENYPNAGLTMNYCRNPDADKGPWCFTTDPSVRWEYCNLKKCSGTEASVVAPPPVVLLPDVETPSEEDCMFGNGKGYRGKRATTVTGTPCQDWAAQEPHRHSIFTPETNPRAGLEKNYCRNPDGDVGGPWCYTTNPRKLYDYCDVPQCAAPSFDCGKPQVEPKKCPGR

For `CNC(=O)[C@@H](NC(=O)[C@H](CC(C)C)[C@H](O)C(=O)NO)C(C)(C)C` [Marimastat], which “effect of inhibitor on proteolysis of C1-NP by MMP7” value [1] is on record?
The value was “inhibited; also recorded: abrogates cleavage”.

And the “effect of inhibitor on proteolysis by LS174T secreted proteases” value [2]?
The value was “abrogated”.

With “Biotin-CGPLGVRGKK(Cy7)eGvndneeGffsar-NH2 [S3]” as the compound, how does the “relative proteolysis by MMP9” value [3] read?
Its value is “responded primarily”.

What about the “urine signal of free peptide” value [4] of the same compound?
Its value is “similar”.

And the “background cleavage of free peptide” value [5]?
The value was “lowest background cleavage”.

What about the “relative proteolysis by MMP2” value [6] of the same compound?
The value was “responded primarily”.

What about the “cleavage by cell-secreted proteases” value [2] of the same compound?
The value was “minimal cleavage”.

With “FAM-sk-plGleea-GC ({FAM}-[dS][dK][dP][dL]G[dL][dE][dE][dA]GC; also: nanoparticle conjugated) [control NPs conjugated to D-amino acid stereoisomers]” as the compound, how does the “cleavage by cell-secreted proteases” value [7] read?
Its value is “not cleaved”.

With “STREAMs: C1-NPs whose peptide is veiled with photolabile DMNPE groups; unveiled by 365 nm light ({FAM}-[dS][dK]PLGLE(DMNPE)E(DMNPE)AGC(iron oxide nanoparticle); not fully specified)” as the compound, how does the “liberated peptide fluorescence in supernatant” value ([8]; first day, no light) read?
Its value is “significantly less peptide fluorescence compared to unmodified L-amino acid sensors”.

And the “peptide fluorescence in supernatant after light exposure” value ([8]; left half of gels illuminated, 24 h, 30 s at 200 mW/cm^2)?
The value was “higher levels of peptide fluorescence”.

What about the “proteolysis by MMP9 after exposure to 365 nm light” value [9, 16] of the same compound?
The value was “elevated proteolysis in a light exposure-dependent manner”.

What about the “stability of DMNPE conjugation (resistance to MMP9-mediated cleavage)” value ([9]; two weeks post-DMNPE-coupling) of the same compound?
Its value is “equal levels of protection compared to freshly conjugated samples”.

What about the “proteolysis by MMP9 after conjugation with DMNPE” value ([9]; veiled vs unmodified, no light) of the same compound?
The value was “marked reduction in proteolysis”.

And the “proteolytic cleavage after light exposure in agarose gel” value [10]?
Its value is “dramatic increase in proteolytic cleavage”.

What about the “proteolysis by MMP13 after exposure to 365 nm light” value [11, 16] of the same compound?
Its value is “elevated proteolysis in a light exposure-dependent manner”.

What about the “proteolysis by MMP13 after conjugation with DMNPE” value ([11]; veiled vs unmodified, no light) of the same compound?
The value was “marked reduction in proteolysis”.

What about the cleavage by thrombin [12] of the same compound?
Its cleavage by thrombin is “reduced cleavage”.

Which results are given for “Biotin-CGPVPLSLVMK(Cy7)eGvndneeGffsar-NH2 [S2]”?
urine signal of free peptide [4]: similar; relative proteolysis by MMP19 [13]: cleaved efficiently; relative proteolysis by MMP7 [14]: cleaved efficiently; cleavage by cell-secreted proteases [2]: minimal cleavage

With “Biotin-CGPVGLIGK(Cy7)eGvndneeGffsar-NH2 [S1]” as the compound, how does the “relative proteolysis by MMP9” value [3] read?
The value was “responded primarily”.

What about the “urine signal of free peptide” value [4] of the same compound?
Its value is “elevated”.

What about the “relative proteolysis by MMP2” value [6] of the same compound?
Its value is “responded primarily”.

And the “cleavage by cell-secreted proteases” value [2]?
Its value is “cleaved most significantly”.

With RLVGEGC [eGvndneeGffsarKsRLVGEGC] as the compound, how does the “proteolysis by plasmin after coupling of DMNPE” value [15] read?
The value was “reduced proteolysis”.

And the “proteolysis by plasmin after UV exposure” value ([15]; then UV)?
Its value is “recovered”.
